Test results as given in US20250325562A1, “Intravenous Ganaxolone Formulations and Methods of Use in Treating Status Epilepticus and Other Seizure Disorders” (MARINUS PHARMACEUTICALS, INC., priority 2015, published 2025).

Legend:
[1] = test system: pilocarpine induced status epilepticus (SE); test: Pilocarpine-induced status epilepticus in rats, cortical EEG power; type: in vivo, Male Sprague-Dawley rats; design: key to Treatment effect on EEG power vs vehicle, significance: * P < 0.05; ** P < 0.01; *** P < 0.001; **** P < 0.0001; ns = not significant
Protocol: This study was designed to determine the ability of a CAPTISOL-ganaxolone (GNX) formulation administered intravenously (IV) at 12 and 15 mg/kg to inhibit pilocarpine induced status epilepticus (SE). Allopregnanolone (Allo) (15 mg/kg; IV) was also evaluated for comparison. In this study, test drugs were administered either 15 or 60 minutes after onset of SE and compared to vehicle (30% Captisol).
Cortical EEG activity was recorded in rats before and after administration of pilocarpine to induce SE. Animals were pre-treated with LiCl to enhance and improve reliability of seizure induction and scopolamine to reduce peripheral cholinergic side effects of pilocarpine. EEG activity was recorded for 5 h after SE onset, and anticonvulsant activity was assessed by determining changes in EEG power over frequency ranges from 0.3 to 96 Hz.
Male Sprague-Dawley rats were used for the studies. Rats were surgically implanted with EEG electrodes and jugular vein catheters. The mean weight at the time of recording was 321+3 g (269-351 g).
EEG electrodes were surgically implanted in anesthetized rats. Animals were also treated with an anti-inflammatory anaelgesic (RIMADYL, (carprofen)) prior to surgery and a subcutaneous local anesthetic. Stainless steel screw electrodes chronically were implanted in the skull (0-80×¼″, Plastics-One, Roanoke, VA) such that the ends of the screws were flush with the inner skull surface. One electrode was located 3.0 mm anterior to bregma and 2 mm to the left of midline, and the second 4.0 mm posterior to bregma and 2.5 mm to the right of midline. The skull surface around the electrodes was sealed with super glue and dental acrylic, and the EEG electrode lead wires were inserted into a plastic pedestal mounted on the skull using dental acrylic. Wound edges were treated with triple antibiotic cream (bacitracin zinc, neomycin sulfate, polymyxin B sulfate; Walgreens). Following surgery, animals were administered antibiotic (ampicillin, 50 mg/kg IP at 0.4 mL/kg) and also received a chewable dose (˜10 mg) of Rimadyl following surgery. The animals were allowed to recover from EEG surgery for 1 week.
Rats were implanted with jugular-vein catheters (JVC) one week following EEG surgery. Rats were administered an anti-inflammatory/analgesic and then anesthetized and placed in a supine position. An incision was made in the skin on the right ventrolateral aspect of the neck to expose the external jugular vein which was then dissected free of surrounding fascia. A ligature was tied around the vein anteriorly to occlude blood flow returning to the heart. A second ligature was loosely tied around the vein posteriorly to create tension on the vessel during venotomy and catheter insertion. After incising the vein, a PE catheter (3Fr) was inserted into the vein and advanced approximately 30 mm towards the heart, positioning the tip at the junction of the precava and right atrium. After confirming patency of the catheter by blood withdrawal, the posterior ligature was tied off, and the catheter flushed with a “heparin-lock” solution (5 units heparin/ml saline) and plugged with a sterilized stainless steel pin. The catheter was then exteriorized by tunneling through the subcutaneous tissue to exit posterior to the head between the shoulder blades. Lastly, after suturing the catheter to the skin, all wounds were closed using sutures or wound clips. Immediately following surgery, the animals were awakened to assess catheter patency. Animals also received a chewable dose (˜10 mg) of Rimadyl following surgery to minimize pain and inflammation.
Animals were allowed a 1-week recovery time following JVC surgery. Jugular vein catheters were flushed daily with a 0.1 mL of heparin solution (5 units/mL) to maintain patency. On the day of surgery, the flushing solution contained ampicillin sulbactam (50 mg/kg). […]

[2] = cited from earlier work

CC(=O)[C@H]1CC[C@H]2[C@@H]3CC[C@H]4C[C@](C)(O)CC[C@]4(C)[C@H]3CC[C@]12C [Ganaxolone, 3α-hydroxy, 3β-methyl-5α-pregnan-20-one]
Treatment effect on EEG power vs vehicle, significance ([1]; 12 mg/kg IV, 60 min post SE onset, 10-30 Hz, 15-30 min post drug): ** (** P < 0.01)
Treatment effect on EEG power vs vehicle, significance ([1]; 12 mg/kg IV, 60 min post SE onset, 10-30 Hz, 30-60 min post drug): ** (** P < 0.01)
Treatment effect on EEG power vs vehicle, significance ([1]; 12 mg/kg IV, 60 min post SE onset, 30-50 Hz, 0-15 min. post drug): ns
Treatment effect on EEG power vs vehicle, significance ([1]; 12 mg/kg IV, 60 min post SE onset, 30-50 Hz, 1-2 hrs post drug): ** (** P < 0.01)
Treatment effect on EEG power vs vehicle, significance ([1]; 12 mg/kg IV, 60 min post SE onset, 30-50 Hz, 2-3 hrs post drug): * (* P < 0.05)
Treatment effect on EEG power vs vehicle, significance ([1]; 12 mg/kg IV, 60 min post SE onset, 30-50 Hz, 3-5 hrs post drug): ns
Treatment effect on EEG power vs vehicle, significance ([1]; 12 mg/kg IV, 60 min post SE onset, 30-50 Hz, 15-30 min post drug): ns
Treatment effect on EEG power vs vehicle, significance ([1]; 12 mg/kg IV, 60 min post SE onset, 30-50 Hz, 30-60 min post drug): * (* P < 0.05)
Treatment effect on EEG power vs vehicle, significance ([1]; 12 mg/kg IV, 60 min post SE onset, 50-70 Hz, 0-15 min. post drug): ns
Treatment effect on EEG power vs vehicle, significance ([1]; 12 mg/kg IV, 60 min post SE onset, 50-70 Hz, 1-2 hrs post drug): ** (** P < 0.01)
Treatment effect on EEG power vs vehicle, significance ([1]; 12 mg/kg IV, 60 min post SE onset, 50-70 Hz, 15-30 min post drug): * (* P < 0.05)
Treatment effect on EEG power vs vehicle, significance ([1]; 12 mg/kg IV, 60 min post SE onset, 50-70 Hz, 30-60 min post drug): ** (** P < 0.01)
Treatment effect on EEG power vs vehicle, significance ([1]; 15 mg/kg IV, 15 min post SE onset, 0-5 Hz, 0-15 min. post drug): **** (**** P < 0.0001)
Treatment effect on EEG power vs vehicle, significance ([1]; 15 mg/kg IV, 15 min post SE onset, 0-5 Hz, 1-2 hrs post drug): **** (**** P < 0.0001)
Treatment effect on EEG power vs vehicle, significance ([1]; 15 mg/kg IV, 15 min post SE onset, 0-5 Hz, 2-3 hrs post drug): **** (**** P < 0.0001)
Treatment effect on EEG power vs vehicle, significance ([1]; 15 mg/kg IV, 15 min post SE onset, 0-5 Hz, 3-5 hrs post drug): *** (*** P < 0.001)
Treatment effect on EEG power vs vehicle, significance ([1]; 15 mg/kg IV, 15 min post SE onset, 0-5 Hz, 15-30 min post drug): **** (**** P < 0.0001)
Treatment effect on EEG power vs vehicle, significance ([1]; 15 mg/kg IV, 15 min post SE onset, 0-5 Hz, 30-60 min post drug): **** (**** P < 0.0001)
Treatment effect on EEG power vs vehicle, significance ([1]; 15 mg/kg IV, 15 min post SE onset, 5-10 Hz, 0-15 min. post drug): **** (**** P < 0.0001)
Treatment effect on EEG power vs vehicle, significance ([1]; 15 mg/kg IV, 15 min post SE onset, 5-10 Hz, 1-2 hrs post drug): **** (**** P < 0.0001)
Treatment effect on EEG power vs vehicle, significance ([1]; 15 mg/kg IV, 15 min post SE onset, 5-10 Hz, 2-3 hrs post drug): *** (*** P < 0.001)
Treatment effect on EEG power vs vehicle, significance ([1]; 15 mg/kg IV, 15 min post SE onset, 5-10 Hz, 3-5 hrs post drug): ns
Treatment effect on EEG power vs vehicle, significance ([1]; 15 mg/kg IV, 15 min post SE onset, 5-10 Hz, 15-30 min post drug): **** (**** P < 0.0001)
Treatment effect on EEG power vs vehicle, significance ([1]; 15 mg/kg IV, 15 min post SE onset, 5-10 Hz, 30-60 min post drug): **** (**** P < 0.0001)
Treatment effect on EEG power vs vehicle, significance ([1]; 15 mg/kg IV, 15 min post SE onset, 10-30 Hz, 0-15 min. post drug): **** (**** P < 0.0001)
Treatment effect on EEG power vs vehicle, significance ([1]; 15 mg/kg IV, 15 min post SE onset, 10-30 Hz, 1-2 hrs post drug): ** (** P < 0.01)
Treatment effect on EEG power vs vehicle, significance ([1]; 15 mg/kg IV, 15 min post SE onset, 10-30 Hz, 2-3 hrs post drug): * (* P < 0.05)
Treatment effect on EEG power vs vehicle, significance ([1]; 15 mg/kg IV, 15 min post SE onset, 10-30 Hz, 3-5 hrs post drug): ns
Treatment effect on EEG power vs vehicle, significance ([1]; 15 mg/kg IV, 15 min post SE onset, 10-30 Hz, 15-30 min post drug): **** (**** P < 0.0001)
Treatment effect on EEG power vs vehicle, significance ([1]; 15 mg/kg IV, 15 min post SE onset, 10-30 Hz, 30-60 min post drug): **** (**** P < 0.0001)
Treatment effect on EEG power vs vehicle, significance ([1]; 15 mg/kg IV, 15 min post SE onset, 30-50 Hz, 0-15 min. post drug): *** (*** P < 0.001)
Treatment effect on EEG power vs vehicle, significance ([1]; 15 mg/kg IV, 15 min post SE onset, 30-50 Hz, 1-2 hrs post drug): ** (** P < 0.01)
Treatment effect on EEG power vs vehicle, significance ([1]; 15 mg/kg IV, 15 min post SE onset, 30-50 Hz, 2-3 hrs post drug): ns
Treatment effect on EEG power vs vehicle, significance ([1]; 15 mg/kg IV, 15 min post SE onset, 30-50 Hz, 3-5 hrs post drug): ns
Treatment effect on EEG power vs vehicle, significance ([1]; 15 mg/kg IV, 15 min post SE onset, 30-50 Hz, 15-30 min post drug): *** (*** P < 0.001)
Treatment effect on EEG power vs vehicle, significance ([1]; 15 mg/kg IV, 15 min post SE onset, 30-50 Hz, 30-60 min post drug): *** (*** P < 0.001)
Treatment effect on EEG power vs vehicle, significance ([1]; 15 mg/kg IV, 15 min post SE onset, 50-70 Hz, 0-15 min. post drug): ** (** P < 0.01)
Treatment effect on EEG power vs vehicle, significance ([1]; 15 mg/kg IV, 15 min post SE onset, 50-70 Hz, 1-2 hrs post drug): ** (** P < 0.01)
Treatment effect on EEG power vs vehicle, significance ([1]; 15 mg/kg IV, 15 min post SE onset, 50-70 Hz, 2-3 hrs post drug): ns
Treatment effect on EEG power vs vehicle, significance ([1]; 15 mg/kg IV, 15 min post SE onset, 50-70 Hz, 3-5 hrs post drug): ns
Treatment effect on EEG power vs vehicle, significance ([1]; 15 mg/kg IV, 15 min post SE onset, 50-70 Hz, 15-30 min post drug): ** (** P < 0.01)
Treatment effect on EEG power vs vehicle, significance ([1]; 15 mg/kg IV, 15 min post SE onset, 50-70 Hz, 30-60 min post drug): ** (** P < 0.01)
Treatment effect on EEG power vs vehicle, significance ([1]; 15 mg/kg IV, 15 min post SE onset, 70-96 Hz, 0-15 min. post drug): ** (** P < 0.01)
Treatment effect on EEG power vs vehicle, significance ([1]; 15 mg/kg IV, 15 min post SE onset, 70-96 Hz, 1-2 hrs post drug): ** (** P < 0.01)
Treatment effect on EEG power vs vehicle, significance ([1]; 15 mg/kg IV, 15 min post SE onset, 70-96 Hz, 2-3 hrs post drug): ns
Treatment effect on EEG power vs vehicle, significance ([1]; 15 mg/kg IV, 15 min post SE onset, 70-96 Hz, 3-5 hrs post drug): ns
Treatment effect on EEG power vs vehicle, significance ([1]; 15 mg/kg IV, 15 min post SE onset, 70-96 Hz, 15-30 min post drug): *** (*** P < 0.001)
Treatment effect on EEG power vs vehicle, significance ([1]; 15 mg/kg IV, 15 min post SE onset, 70-96 Hz, 30-60 min post drug): ** (** P < 0.01)
reduction in SE amplitude ([1]; 12 and 15 mg/kg IV): very strong reduction in SE amplitude overall
EEG power ([1]; dosed 15 minutes after SE-onset): reduced EEG power across all frequency ranges to levels at or below baseline for at up to 5 h
EEG power ([1]; dosed at 60′ post SE-onset, not below baseline up to 70 Hz): strongly reduced
half-life ([2]; human plasma following oral administration): approximately 20 hours
Tmax ([2]; therapeutic blood levels are reached quickly): short
